Like-named read-outs stand apart in the source and are kept apart here.
Key:
[1] = biological target: T1, human FXR (NR1H4) (Homo sapiens, UniProt Q96RI1); assay: Human FXR (NR1H4) agonist assessment, FXRE-NanoLuc reporter in HEK293T cells; type: cell-based
T1 sequence (Q96RI1 1-476 isoform Q96RI1-1): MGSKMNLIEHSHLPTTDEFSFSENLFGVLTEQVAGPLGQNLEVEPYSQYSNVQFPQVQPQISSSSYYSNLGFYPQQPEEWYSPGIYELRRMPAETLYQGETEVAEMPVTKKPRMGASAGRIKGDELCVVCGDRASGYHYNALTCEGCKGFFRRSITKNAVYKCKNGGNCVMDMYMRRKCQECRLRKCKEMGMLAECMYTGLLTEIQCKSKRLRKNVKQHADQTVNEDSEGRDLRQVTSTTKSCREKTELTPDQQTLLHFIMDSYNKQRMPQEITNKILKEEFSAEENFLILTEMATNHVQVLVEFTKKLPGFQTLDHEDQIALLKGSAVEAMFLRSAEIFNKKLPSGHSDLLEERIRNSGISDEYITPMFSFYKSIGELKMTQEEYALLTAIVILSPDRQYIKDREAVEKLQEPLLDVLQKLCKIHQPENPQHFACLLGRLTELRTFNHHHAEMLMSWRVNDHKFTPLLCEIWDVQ
Procedure, shortened: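 Read-out was NanoLuc luminescence in culture medium, measured 5 min after adding coelenterazine. Cells were HEK293T stably carrying human FXR and an FXRE reporter, exposed to compound for 24 hr at 37 °C. Vehicle was 0.01% DMSO. EC50 was obtained from sigmoid fits of gradient dilutions.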

[2] = biological target: MRGPRX4 (Homo sapiens, UniProt Q96LA9); assay: MRGPRX4 activation, Fluo-8 Ca2+ FLIPR assay in HEK293T cells stably expressing MRGPRX4; type: cell-based; design: key to MRGPRX4 activation, Average / MRGPRX4 activation, Ave.: fluorescence change dF/F0
Procedure, shortened: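 Response measured as dF/F0: 30 s baseline, then 150 s after compound addition on FLIPR Tetra, in HHBS after 40-60 min room-temperature loading with 2 μM Fluo-8 AM.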

[3] = FXR activation, HEK293T FXRE-NanoLuc reporter, 24 hr
[4] = FXR activation, HEK293T FXRE-NanoLuc reporter, 24 hr, read-out: EC50
[5] = MRGPRX4 activation, Ca2+ fluorescence, no activation in tested range reported as III, read-out: Activity (EC50 μM)

MRGPRX4, sequence (Q96LA9 whole entry): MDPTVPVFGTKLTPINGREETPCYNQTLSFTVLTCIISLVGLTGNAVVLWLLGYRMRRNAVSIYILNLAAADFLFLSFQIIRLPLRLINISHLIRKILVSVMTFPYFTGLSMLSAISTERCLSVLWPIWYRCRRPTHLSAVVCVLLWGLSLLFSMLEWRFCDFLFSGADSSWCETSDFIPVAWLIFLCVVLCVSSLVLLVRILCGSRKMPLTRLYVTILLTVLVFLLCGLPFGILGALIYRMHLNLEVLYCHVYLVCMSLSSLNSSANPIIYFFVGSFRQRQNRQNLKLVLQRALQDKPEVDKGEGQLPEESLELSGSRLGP

SMILES	Efficacy (maximum measured induction of NanoLuc, normalized to CDCA set as 100%) [1, 3]	EC50 [1, 4] [µM]	MRGPRX4 activation, fluorescence change (dF/F0), Average ([2]; Conc. (Log[M]) −4.5)	EC50 [2, 5] [µM]	MRGPRX4 activation, Average ([2]; E3-9, Conc. (Log[M]) −4.0)	MRGPRX4 activation, Average ([2]; E3-9, Conc. (Log[M]) −4.5)	MRGPRX4 activation, Average ([2]; E3-9, Conc. (Log[M]) −5.0)	MRGPRX4 activation, Average ([2]; E3-9, Conc. (Log[M]) −5.4)	MRGPRX4 activation, Average ([2]; E3-9, Conc. (Log[M]) −5.9)	MRGPRX4 activation, Average ([2]; E3-9, Conc. (Log[M]) −6.4)	MRGPRX4 activation, Average ([2]; E3-9, Conc. (Log[M]) −6.9)	MRGPRX4 activation, Average ([2]; E3-9, Conc. (Log[M]) −7.3)	MRGPRX4 activation, Average ([2]; E3-9, Conc. (Log[M]) −7.8)	MRGPRX4 activation, Average ([2]; E3-9, Conc. (Log[M]) −8.3)	MRGPRX4 activation, fluorescence change (dF/F0), Average ([2]; Conc. (Log[M]) −4)	MRGPRX4 activation, fluorescence change (dF/F0), Average ([2]; Conc. (Log[M]) −5)	MRGPRX4 activation, fluorescence change (dF/F0), Average ([2]; Conc. (Log[M]) −5.5)	MRGPRX4 activation, fluorescence change (dF/F0), Average ([2]; Conc. (Log[M]) −6)	MRGPRX4 activation, fluorescence change (dF/F0), Average ([2]; Conc. (Log[M]) −7)	also measured
CC[C@H]1[C@@H](O)[C@@H]2[C@H](CC[C@]3(C)[C@@H]([C@H](C)CCNC(=O)NS(=O)(=O)c4ccc(C(C)(CO)CO)cc4)CC[C@@H]23)[C@@]2(C)CCCC[C@@H]12 [5-22]	C (100%<efficacy <=300%)	< 1	0.018	> 100	–	–	–	–	–	–	–	–	–	–	–	–	–	–	–	MRGPRX4 activation, fluorescence change (dF/F0), Average ([2]; Conc. (Log[M]) −4.0): 0.020; MRGPRX4 activation, fluorescence change (dF/F0), Average ([2]; Conc. (Log[M]) −5.0): 0.013; MRGPRX4 activation, fluorescence change (dF/F0), Average ([2]; Conc. (Log[M]) −5.4): 0.013; MRGPRX4 activation, fluorescence change (dF/F0), Average ([2]; Conc. (Log[M]) −5.9): 0.011; MRGPRX4 activation, fluorescence change (dF/F0), Average ([2]; Conc. (Log[M]) −6.4): 0.016; MRGPRX4 activation, fluorescence change (dF/F0), Average ([2]; Conc. (Log[M]) −6.9): 0.016; MRGPRX4 activation, fluorescence change (dF/F0), Average ([2]; Conc. (Log[M]) −7.3): 0.018; MRGPRX4 activation, fluorescence change (dF/F0), Average ([2]; Conc. (Log[M]) −7.8): 0.014; MRGPRX4 activation, fluorescence change (dF/F0), Average ([2]; Conc. (Log[M]) −8.3): 0.016
CC[C@H]1[C@@H](O)[C@@H]2[C@H](CC[C@]3(C)[C@@H]([C@H](C)CCNC(=O)NS(=O)(=O)c4ccc(C(C)(C)CF)cc4)CC[C@@H]23)[C@@]2(C)CC[C@H](F)C[C@@H]12 [9-1]	B (300%<efficacy <=400%)	< 1	–	> 100	0.019	0.021	0.012	0.018	0.014	0.019	0.016	0.016	0.012	0.018	–	–	–	–	–	–
CC[C@H]1[C@@H](O)[C@@H]2[C@H](CC[C@]3(C)[C@@H]([C@H](C)CCNS(=O)(=O)C[C@]45CC[C@H](CC4=O)C5(C)C)CC[C@@H]23)[C@@]2(C)CCCC[C@@H]12 [6-3]	C (100%<efficacy <=300%)	1 to 10	–	> 100	0.016	0.008	0.020	0.016	0.018	0.018	0.011	0.018	0.020	0.013	–	–	–	–	–	–
CC[C@H]1[C@@H](O)[C@@H]2[C@H](CC[C@]3(C)[C@@H]([C@H](C)CCNC(=O)NS(=O)(=O)c4ccc(C5(CO)CCCC5)cc4)CC[C@@H]23)[C@@]2(C)CCCC[C@@H]12 [5-21]	C (100%<efficacy <=300%)	< 1	0.016	> 100	–	–	–	–	–	–	–	–	–	–	–	–	–	–	–	MRGPRX4 activation, fluorescence change (dF/F0), Average ([2]; Conc. (Log[M]) −4.0): 0.018; MRGPRX4 activation, fluorescence change (dF/F0), Average ([2]; Conc. (Log[M]) −5.0): 0.020; MRGPRX4 activation, fluorescence change (dF/F0), Average ([2]; Conc. (Log[M]) −5.4): 0.018; MRGPRX4 activation, fluorescence change (dF/F0), Average ([2]; Conc. (Log[M]) −5.9): 0.018; MRGPRX4 activation, fluorescence change (dF/F0), Average ([2]; Conc. (Log[M]) −6.4): 0.016; MRGPRX4 activation, fluorescence change (dF/F0), Average ([2]; Conc. (Log[M]) −6.9): 0.018; MRGPRX4 activation, fluorescence change (dF/F0), Average ([2]; Conc. (Log[M]) −7.3): 0.016; MRGPRX4 activation, fluorescence change (dF/F0), Average ([2]; Conc. (Log[M]) −7.8): 0.020; MRGPRX4 activation, fluorescence change (dF/F0), Average ([2]; Conc. (Log[M]) −8.3): 0.018
CC[C@H]1[C@@H](O)[C@@H]2[C@H](CC[C@]3(C)[C@@H]([C@H](C)CCNC(=O)NS(=O)(=O)N4CCCC4)CC[C@@H]23)[C@@]2(C)CCCC[C@@H]12 [5-11]	C (100%<efficacy <=300%)	1 to 10	0.030	> 100	–	–	–	–	–	–	–	–	–	–	0.057	0.033	0.013	0.023	0.067	–
C[C@H](CCC(=O)O)[C@H]1CC[C@H]2[C@@H]3CC[C@@H]4C[C@@H](O)CC[C@]4(C)[C@H]3C[C@H](O)[C@]12C [RC-5]	B (300%<efficacy <=400%)	1 to 10	0.228	–	–	–	–	–	–	–	–	–	–	–	0.300	0.166	0.030	−0.009	−0.017	MRGPRX4 activation, fluorescence change (dF/F0), Average ([2]; Conc. (Log[M]) −8): −0.021; MRGPRX4 activation, fluorescence change (dF/F0), Average ([2]; Conc. (Log[M]) −9): −0.007
CC[C@H]1[C@@H](O)[C@@H]2[C@H](CC[C@]3(C)[C@@H]([C@H](C)CCN=C=S)CC[C@@H]23)[C@@]2(C)CCC(F)(F)C[C@@H]12 [11-2]	D (efficacy <=100%)	–	–	–	0.030	0.020	0.010	0.020	0.020	0.013	0.013	0.013	0.013	0.025	–	–	–	–	–	EC50 [1]: > 10 µM; EC50 [2]: > 100 µM
CC[C@H]1[C@@H](O)[C@@H]2[C@H](CC[C@]3(C)[C@@H]([C@H](C)CCNC(=O)NS(=O)(=O)c4ccc5c(c4)OCO5)CC[C@@H]23)[C@@]2(C)CCCC[C@@H]12 [5-6]	C (100%<efficacy <=300%)	< 1	0.033	> 100	–	–	–	–	–	–	–	–	–	–	0.077	0.010	0.017	0.013	0.010	–
CC[C@H]1[C@@H](O)[C@@H]2[C@H](CC[C@]3(C)[C@@H]([C@H](C)CC(=O)NS(=O)(=O)C(C)(C)C)CC[C@@H]23)[C@@]2(C)CCCC[C@@H]12 [4-3]	B (300%<efficacy <=400%)	1 to 10	–	> 100	–	–	–	–	–	–	–	–	–	–	–	–	–	–	–	–
CC[C@H]1[C@@H](O)[C@@H]2[C@H](CC[C@]3(C)[C@@H]([C@H](C)CCNC(=O)NS(=O)(=O)c4cc(F)ccc4F)CC[C@@H]23)[C@@]2(C)CCC(F)(F)C[C@@H]12 [10-2]	C (100%<efficacy <=300%)	< 1	–	> 100	0.006	0.004	0.010	0.018	0.018	0.019	0.021	0.019	0.018	0.018	–	–	–	–	–	–
CC[C@H]1[C@@H](OC(=O)c2cccc(I)c2)[C@@H]2[C@H](CC[C@@]3(C)[C@H]2CC[C@]3(Cl)[C@H](C)CCC(=O)OC)[C@@]2(C)CCCC[C@@H]12 [1-6]	D (efficacy <=100%)	> 10	−0.031	> 100	–	–	–	–	–	–	–	–	–	–	0.018	−0.001	−0.012	−0.006	−0.001	MRGPRX4 activation, fluorescence change (dF/F0), Average ([2]; Conc. (Log[M]) −8): 0.001; MRGPRX4 activation, fluorescence change (dF/F0), Average ([2]; Conc. (Log[M]) −9): −0.014
CC[C@H]1[C@@H](O)[C@@H]2[C@H](CC[C@]3(C)[C@@H]([C@H](C)CCNC(=O)NS(=O)(=O)c4ccc(C(C)(C)CO)cc4)CC[C@@H]23)[C@@]2(C)CCCC[C@@H]12 [5-2]	A (efficacy >400%)	< 1	0.030	> 100	–	–	–	–	–	–	–	–	–	–	0.087	0.023	0.027	0.023	0.020	–

Reference: patent US20260116910A1, “POLYCYCLIC COMPOUNDS AND METHODS THEREOF” (HEPAITECH (BEIJING) BIOPHARMA TECHNOLOGY CO., LTD., priority 2021, published 2026)
